According to PMC8700061, “Fragment-Sized and Bidentate (Immuno)Proteasome Inhibitors Derived from Cysteine and Threonine Targeting Warheads” (Cells, 2021):
Like-named read-outs stand apart in the source and are kept apart here.

Legend:
β5i subunit of human iCP = biological target: T1, β5i subunit of human iCP (Homo sapiens, UniProt P20618+P28062); assay: Inhibition of β5i activity (RA at 10 µM, IC50, IC50 shift), Suc-LLVY-AMC; format: biochemical; details: for Group efficiency (GE): ΔpIC50/ΔNheavy with compound 1 as reference
T1 construct: purchased Boston Biochem, Inc., Cambridge, MA, USA
Method: Residual activity measurements were performed at 10 μM final concentrations in the assay buffer (0.01% SDS, 50 mM Tris-HCl, 0.5 mM EDTA, pH 7.4). Stock solutions of the compounds were prepared in DMSO. To 50 μL of each compound in buffer, 25 μL of 0.8 nM human iCP or human cCP (both from Boston Biochem, Inc., Cambridge, MA, USA) were added. After incubation at 37 °C for 30 min, the reaction was started by adding of 25 μL of 100 μM relevant fluorogenic substrate: acetyl-Nle-Pro-Nle-Asp-AMC (Ac-nLPnLD-AMC, (Bachem, Bubendorf, Switzerland)) for β1, acetyl-Pro-Ala-Leu-7-amino-4-methylcoumarin (Ac-PAL-AMC, (Boston Biochem, Inc., Cambridge, MA, USA)) for β1i, t-butyloxycarbonyl-Leu-Arg-Arg-7-amino-4-methylcoumarin (Boc-LRR-AMC, (Bachem, Bubendorf, Switzerland)) for β2 and β2i, succinyl-Leu-Leu-Val-Tyr-7-amino-4-methylcoumarin (Suc-LLVY-AMC) (Bachem, Bubendorf, Switzerland) for β5 and β5i. Reaction progress was recorded on BioTek Synergy HT microplate reader by monitoring fluorescence at 460 nm (λex = 360 nm) for 90 min at 37 °C. The initial linear ranges were used to calculate velocity and determine residual activity. In the case of evaluation of β1, βi, β2, and β2i activities, the assay buffer was modified by replacing SDS with the proteasomal activator PA28α (Boston Biochem, Inc., Cambridge, MA, USA).
Final assay mixtures contained 0.2 nM human iCP or 0.2 nM human cCP in assay buffer (0.01% SDS (or PA28α in cases of β1, β1i subunits), 50 mM Tris-HCl, 0.5 mM EDTA, pH 7.4). Inhibitors were dissolved in DMSO and added to the black 96-well plates for at least eight different concentrations (the final concentration of DMSO was not more than 1%). […] Fluorescence was monitored at 460 nm (λex = 360 nm) for 90 min at 37 °C. The progress of the reactions was recorded and the initial linear ranges were used to calculate the velocity. IC50 values were calculated using GraphPadPrism (GraphPad Software, San Diego, CA, USA) and are means from at least three independent determinations.

[1] = UV-Vis-based stability assay in buffer; format: physicochemical; details: for Stability in Buffer (UV-Vis-based assay): after 1 h, assay buffer pH 7.4, 37 °C, 50 µM; for Stability in buffer solutions: assay buffer / PBS pH 7.4
Method: The aqueous stability of all compounds was determined spectrophotometrically by following the changes in the absorption spectra of the compounds. The buffer solution (50 mM Tris-HCl, 0.5 mM EDTA, pH 7.4) was pre-incubated at 37 °C. Aliquots of the compounds studied (1 mM in DMSO) were transferred to a 96-well flat-bottom UV-transparent microplate (Corning, CLS3635, Corning Inc, Corning, NY, USA) containing the buffer solution to obtain a 50 μM solution containing 5% DMSO (final volume, 300 μL). The plate was incubated without lid at 37 °C in a plate reader (Synergy H4, BioTek Instruments, Inc., Santa Clara, CA, USA) and the absorbance spectrum (244–400 nm) was acquired in sweep mode after 0, 15, 30, 60, 120, 180, and 240 min using a discontinuous kinetic procedure in Gen5 software (BioTek Instruments, Inc., Santa Clara, CA, USA). The time required to read the entire plate was 3 min. To determine the baseline, the compound solution was replaced with pure DMSO and subtracted from each reading. Compounds with an absorbance maximum of less than 0.20 AU were not evaluated using these assays due to the high experimental error. For other compounds, the relative absorbance difference between the first time point and 60 min at the most responsive wavelength was calculated. If the relative absorbance difference for the compound in the buffer was below 0.1, between 0.1–0.2, and above 0.2, the compound was classified as stable, intermediate, and unstable, respectively.

human caspase-1 = biological target: T2, human caspase-1 (Homo sapiens, UniProt P29466); assay: Caspase-1 assay, Ac-YVAD-AMC; format: biochemical; details: 30 min pre-incubation, read-out: Residual activity [%] ± SD, Caspase-1
T2 construct: purchased Sigma Aldrich, St. Louis, MO, USA C5482; host or cells: E. coli
T2 sequence (P29466 120-297 limits assumed): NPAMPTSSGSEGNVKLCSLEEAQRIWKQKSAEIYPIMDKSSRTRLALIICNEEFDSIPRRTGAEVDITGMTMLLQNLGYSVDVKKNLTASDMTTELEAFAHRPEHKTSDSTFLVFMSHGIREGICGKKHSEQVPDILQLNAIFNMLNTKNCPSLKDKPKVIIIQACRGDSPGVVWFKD
T2 sequence (P29466 317-404 limits assumed): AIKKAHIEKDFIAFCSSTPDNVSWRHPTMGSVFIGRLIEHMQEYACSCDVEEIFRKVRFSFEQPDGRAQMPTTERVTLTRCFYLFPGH
Method: The inhibitory activity of the compounds against caspase-1 was investigated by fluorimetric assay using Ac-YVAD-AMC (SCP0069-5 mg, Sigma Aldrich, St. Louis, MO, USA) as a substrate. Recombinant human caspase-1 (expressed in E. coli, C5482, batch: SLBX3303, Sigma Aldrich, St. Louis, MO, USA) was diluted with 1 mL of assay buffer (50 mM HEPES pH 7.4, 100 mM NaCl, 1 mM EDTA, 10% (v/v) glycerol, 0.1% CHAPS, 1 mM DTT), divided into 50 µL aliquots and stored at −80 °C.
Briefly, compounds were incubated at a concentration of 100 µM (or 1% (v/v) DMSO as a control) with caspase-1 (1:5 dilution of caspase-1 stock solution) in assay buffer without DTT (to exclude reaction of compounds with DTT) in a 384-well microplate at room temperature for 30 min. The reaction was started by adding the substrate Ac-YVAD-AMC (final concentration: 20 µM) and monitored at λex = 360/40 and λem = 460/40 (Synergy HT, BioTek Instruments, Inc., Santa Clara, CA, USA) for 1 h. The initial linear ranges were used to calculate the velocity and determine RAs. Z-Val-Ala-DL-Asp-fluoromethylketone (N-1510, Bachem, Bubendorf, Switzerland) was used as a positive control.

[2] = 30 min pre-incubation, SDS activator, read-out: IC50 (µM), β5i
[3] = 0 min pre-incubation (IC50 shift), read-out: IC50 (µM), β5i, without pre-incubation
[4] = 30 min pre-incubation, SDS activator

## COc1cccc2oc(C#N)nc12 [Compound 6]
β5i subunit of human iCP; [2]
  IC50: 11 ± 7 µM
β5i subunit of human iCP
  Group efficiency (GE): 0.44
[1]
  Stability in Buffer (UV-Vis-based assay): stable ^c,d (relative absorbance difference for the compound in the buffer was below 0.1)

## N#Cc1nc2c(O)cccc2o1 [Compound 10]
β5i subunit of human iCP; [3]
  IC50: 10 ± 1 µM
β5i subunit of human iCP; [4]
  IC50 (µM), β5i: single digit micromolar
β5i subunit of human iCP; [2]
  IC50: 3.6 ± 2.8 µM
β5i subunit of human iCP; IC50 (µM), β5i, 60-min pre-incubation, 60 min pre-incubation (IC50 shift)
  IC50: 0.5 ± 0.07 µM
β5i subunit of human iCP
  Group efficiency (GE): 1.36
[1]
  Stability in Buffer (UV-Vis-based assay): stable ^c (relative absorbance difference for the compound in the buffer was below 0.1)
Human caspase-1
  remaining activity at 100 µM: 9 ± 3%

## N#Cc1nc2cc(O)ccc2o1 [Compound 11]
β5i subunit of human iCP; [4]
  IC50 (µM), β5i: single digit micromolar
β5i subunit of human iCP; [2]
  IC50: 4.2 ± 2.5 µM
β5i subunit of human iCP
  Group efficiency (GE): 1.30
[1]
  Stability in Buffer (UV-Vis-based assay): stable ^c (relative absorbance difference for the compound in the buffer was below 0.1)
Human caspase-1
  remaining activity at 100 µM: 0%

## N#Cc1nc2cccc(O)c2o1 [Compound 13]
β5i subunit of human iCP; [4]
  IC50 (µM), β5i: single digit micromolar
β5i subunit of human iCP; [2]
  IC50: 2.1 ± 1.2 µM
β5i subunit of human iCP
  Group efficiency (GE): 1.60
[1]
  Stability in Buffer (UV-Vis-based assay): stable ^c (relative absorbance difference for the compound in the buffer was below 0.1)
Human caspase-1
  remaining activity at 100 µM: 5 ± 1%

## CC(=O)Oc1cccc2oc(C#N)nc12 [Compound 14]
β5i subunit of human iCP; [4]
  IC50 (µM), β5i: single digit micromolar
β5i subunit of human iCP; [2]
  IC50: 19 ± 9 µM
β5i subunit of human iCP
  Group efficiency (GE): 0.16
[1]
  Stability in Buffer (UV-Vis-based assay): stable ^c (relative absorbance difference for the compound in the buffer was below 0.1)
Human caspase-1
  remaining activity at 100 µM: 49 ± 5%

## CC(=O)Oc1ccc2oc(C#N)nc2c1 [Compound 15]
β5i subunit of human iCP; [2]
  IC50: 7.4 ± 1.7 µM
β5i subunit of human iCP
  Group efficiency (GE): 0.26
[1]
  Stability in Buffer (UV-Vis-based assay): stable ^c (relative absorbance difference for the compound in the buffer was below 0.1)
Human caspase-1
  remaining activity at 100 µM: 12 ± 2%

## C=Cc1nc(CC(=O)N[C@@H](CC(C)C)B2O[C@@H]3C[C@@H]4C[C@@H](C4(C)C)[C@]3(C)O2)cs1 [Compound 28]
β5i subunit of human iCP; [2]
  IC50: 1.4 µM
Human caspase-1
  remaining activity at 100 µM: > 50%

## CC(C)C[C@H](NC(=O)CCn1c(C#N)nc2ccccc21)B1O[C@@H]2C[C@@H]3C[C@@H](C3(C)C)[C@]2(C)O1 [Compound 30]
β5i subunit of human iCP; [3]
  IC50: 1.5 ± 0.3 µM
β5i subunit of human iCP; [2]
  IC50: 0.6 µM
[1]
  Stability in Buffer (UV-Vis-based assay): stable ^b,c (relative absorbance difference for the compound in the buffer was below 0.1)
Human caspase-1
  remaining activity at 100 µM: > 50%

## CC(C)C[C@H](NC(=O)CCCn1c(C#N)nc2ccccc21)B1O[C@@H]2C[C@@H]3C[C@@H](C3(C)C)[C@]2(C)O1 [Compound 31]
β5i subunit of human iCP; [2]
  IC50: 5.7 ± 0.9 µM
[1]
  Stability in Buffer (UV-Vis-based assay): stable ^b,c (relative absorbance difference for the compound in the buffer was below 0.1)
Human caspase-1
  remaining activity at 100 µM: > 50%

## CC(C)C[C@H](NC(=O)CCn1c(C#N)nc2ccccc21)B(O)O [Compound 34]
β5i subunit of human iCP; [3]
  IC50: 5.1 µM
β5i subunit of human iCP; [2]
  IC50: 2.2 ± 0.6 µM
Human caspase-1
  remaining activity at 100 µM: > 50%

## CC(C)C[C@H](NC(=O)CCCn1c(C#N)nc2ccccc21)B(O)O [Compound 35]
β5i subunit of human iCP; [2]
  IC50: 7.9 ± 0.5 µM
[1]
  Stability in Buffer (UV-Vis-based assay): stable ^b (relative absorbance difference for the compound in the buffer was below 0.1)
Human caspase-1
  remaining activity at 100 µM: > 50%

## CC(C)C[C@H](NC(=O)CCn1c(C#N)nc2cccc(Cl)c21)B1O[C@@H]2C[C@@H]3C[C@@H](C3(C)C)[C@]2(C)O1 [Compound 38]
β5i subunit of human iCP; [3]
  IC50: 6.4 ± 0.7 µM
β5i subunit of human iCP; [2]
  IC50: 0.6 ± 0.1 µM
[1]
  Stability in Buffer (UV-Vis-based assay): stable ^b,c (relative absorbance difference for the compound in the buffer was below 0.1)
Human caspase-1
  remaining activity at 100 µM: > 50%

## CC(C)C[C@H](NC(=O)Cc1ccc2oc(C#N)nc2c1)B1O[C@@H]2C[C@@H]3C[C@@H](C3(C)C)[C@]2(C)O1 [Compound 39]
β5i subunit of human iCP; [3]
  IC50: 3.2 ± 0.4 µM
β5i subunit of human iCP; [2]
  IC50: 3.1 ± 0.3 µM
[1]
  Stability in Buffer (UV-Vis-based assay): stable ^b,c (relative absorbance difference for the compound in the buffer was below 0.1)
  Stability in buffer solutions: stable
Human caspase-1
  remaining activity at 100 µM: > 50%

## CC(C)C[C@H](NC(=O)Cc1ccc2oc(C#N)nc2c1)B(O)O [Compound 40]
β5i subunit of human iCP; [2]
  IC50: 2.4 ± 1 µM
[1]
  Stability in Buffer (UV-Vis-based assay): stable ^b (relative absorbance difference for the compound in the buffer was below 0.1)
  Stability in buffer solutions: stable
Human caspase-1
  remaining activity at 100 µM: > 50%
